Measured values as given in US20120309744A1, “DOSING REGIMENS AND METHODS FOR TREATING OR PREVENTING HEPATOCELLULAR CARCINOMA” (NBI Pharmaceuticals, Inc., priority 2011, published 2012).

Assays:
MMP-3 promoter = test: MMP promoter/luciferase reporter assay in transfected HCC cells; format: cell-based; conditions: HepG2 cells, luciferase reporter
Description: To investigate the mechanism of suppression of MMP-1, -3 and -7 expression by MK4, HCC cells will be transiently transfected with MMP-1, -3 and -7 promoter/luciferase reporter plasmids and then treated with MK4.

MMP-1 = test: Suppression of TPA-induced MMP expression; format: cell-based
Description: (§1) Since MK4 inhibits MMP-1, -3 and -7 mRNA expression, the ability of MK4 to suppress TPA-induced MMP expression will be investigated. […] MK4 also suppresses the MMP-1 and -3 protein expression induced by TPA.

MMP-3 = test: Suppression of TPA-induced MMP expression; format: cell-based
Description: as §1

MMP-7 = test: Suppression of TPA-induced MMP expression; format: cell-based
Description: as §1

hepatocellular carcinoma [1] = test: Subject with hepatocellular carcinoma given oral MK4 (induction then maintenance); format: in vivo, human
Procedure: A subject suffering from hepatocellular carcinoma is administered oral MK4 (90 mg daily once a day). After the administration of MK4 for six weeks, tumor sizes will decrease and the diameter of the main tumor is smaller. […] This case report provides compelling evidence that MK4 may be useful in the treatment of HCC.

[2] = tested on: dysplastic nodule or early HCC; test: Subject with HCV-related liver cirrhosis and dysplastic nodule or early HCC given MK4 and an ACE-I; format: in vivo, human
Description: Treatment with MK4 and an ACE-I normalizes AFP and AFP-L3 tumor markers and the hepatic nodule disappears. A subject with hepatitis C virus (HCV)-related liver cirrhosis is diagnosed with what was termed a “dysplastic nodule or early HCC.” The diagnosis is based on enhanced computed tomography (CE-CT) study and elevations of the tumor markers alpha-fetoprotein (AFP) and lectin-reactive alpha-fetal protein (AFP-L3).

hepatocellular carcinoma [3] = test: Randomized study of oral MK4 versus no MK4 in patients with hepatocellular carcinoma; format: in vivo, human
Procedure: Patients with hepatocellular carcinoma are randomized to receive oral MK4 (90 mg/day) or no MK4. All patients receive conventional therapy with percutaneous tumor ablation and/or transcatheter arterial embolization. The rate of portal vein invasion at 12 months of follow-up will be reduced in MK4 recipients as compared with controls.

[4] = after six weeks at 90 mg, additional twenty-two months at 45 mg daily once a day
[5] = after one-year combined treatment, MK-4 45 mg daily for additional 48 months, ACE-I halted
[6] = oral MK4 90 mg daily with ACE-I (e.g., perindopril; 4 mg/day)
[7] = after 12 months at 90 mg/day, additional twenty-two months at 45 mg daily once a day

CC(C)=CCC/C(C)=C/CC/C(C)=C/CC/C(C)=C/CC1=C(C)C(=O)c2ccccc2C1=O [MK4, menatetrenone]
MMP-3 promoter activity (MMP-3 promoter): decrease MMP-3 promoter activity weakly
MMP-1 mRNA expression induced by TPA (MMP-1): dose-dependently inhibits
MMP-1 promoter activity induced by TPA (MMP-1): dose-dependently suppresses
MMP-1 protein expression induced by TPA (MMP-1): suppresses
MMP-3 mRNA expression induced by TPA (MMP-3): dose-dependently inhibits
MMP-3 promoter activity induced by TPA (MMP-3): dose-dependently suppresses
MMP-3 protein expression induced by TPA (MMP-3): suppresses
MMP-7 mRNA expression induced by TPA (MMP-7): dose-dependently inhibits
MMP-7 promoter activity induced by TPA (MMP-7): dose-dependently suppresses
recurrence (hepatocellular carcinoma [1]; [4]): no signs of recurrence are observed
tumor markers (hepatocellular carcinoma [1]; [4]): remain within the normal limits
diameter of the main tumor (hepatocellular carcinoma [1]; oral 90 mg daily once a day for six weeks): smaller
serum level of AFP [2, 5]: remain in the normal range
serum level of AFP-L3 [2, 5]: remain in the normal range
serum level of AFP [2, 6]: gradually decrease
serum level of AFP-L3 [2, 6]: gradually decrease
rate of portal vein invasion (hepatocellular carcinoma [3]; 12 months of follow-up, oral MK4 90 mg/day plus conventional therapy, versus controls): reduced
recurrence (hepatocellular carcinoma [3]; [7]): no signs of recurrence are observed
tumor markers (hepatocellular carcinoma [3]; [7]): remain within the normal limits
